For one test, the target named is T1, Recombinant human Src (Homo sapiens, UniProt P12931).
T1 construct: made in house; host or cells: baculovirus-insect cell system
T1 sequence (P12931 whole entry): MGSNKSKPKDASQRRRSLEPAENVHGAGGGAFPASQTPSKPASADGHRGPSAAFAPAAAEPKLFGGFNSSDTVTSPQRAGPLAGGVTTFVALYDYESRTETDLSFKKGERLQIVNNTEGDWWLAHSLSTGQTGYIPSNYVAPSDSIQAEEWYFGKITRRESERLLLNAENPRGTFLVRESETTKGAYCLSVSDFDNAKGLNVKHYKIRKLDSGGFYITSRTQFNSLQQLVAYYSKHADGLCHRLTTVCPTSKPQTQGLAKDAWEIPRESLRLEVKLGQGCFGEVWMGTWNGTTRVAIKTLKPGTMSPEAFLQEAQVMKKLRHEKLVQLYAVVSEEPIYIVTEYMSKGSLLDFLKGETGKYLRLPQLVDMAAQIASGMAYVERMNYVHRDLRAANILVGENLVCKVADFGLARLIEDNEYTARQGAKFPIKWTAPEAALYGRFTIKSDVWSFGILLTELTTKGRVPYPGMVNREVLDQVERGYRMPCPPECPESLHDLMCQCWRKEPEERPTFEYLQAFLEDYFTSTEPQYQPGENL
Briefly: Src tyrosine kinase activity, poly E4Y / 32P-ATP phosphorylation assay. The note with it: Table 2; compound at 15 ug/mL; read-out: % Inhibition at 15 ug/mL Src (%). It counts as biochemical. On the procedure: Recombinant human Src was expressed using the baculovirus-insect cell system and purified as published (Budde et al., 1993 and 2000).
The tyrosine kinase activity of Src, Csk and FGFr was determined using poly E4Y and ^32P-ATP. Briefly, enzymes were assayed in a reaction mixture consisting of 0.15 M EPPS-NaOH (pH 8.0) with 6 mM MgCl2, 0.2 mM γ^32P-ATP (0.2-0.4 mCi/μmol), 10% glycerol, 0.1% Triton X-100, and poly E4Y. Poly E4Y is a synthetic peptide whose phosphorylation is measured in this assay by the addition of the radioactively labeled phosphate from the ATP (Budde et al., 1995). […] When ATP was varied (0, 50, 100 and 250 μM), poly E4Y was kept constant at 150 μg/ml.
As for `Cc1ccc(S(=O)(=O)Nc2cc(NC3CCCCC3)c([N+](=O)[O-])cc2NS(=O)(=O)c2ccc(C)cc2)cc1` [Compound 9j, N-[4-cyclohexylamino-5-nitro-2-(4-toluenesulfonylamino)-phenyl]-4-toluenesulfonamide], the inhibition at 15 µg/mL stood at 4%.

The test is the same for the next values; noted with them: Table 3, Formula II compounds; NI = no inhibition at 100 μg/mL.
Turning to `COc1ccc(Oc2ccc(NS(=O)(=O)c3ccc(C)cc3)c(NS(=O)(=O)CCc3cccc4ccccc34)c2)cc1` [Compound 22ee, N-[4-(4-methoxy-phenoxy)-2-(2-naphthalen-1-yl-ethanesulfonylamino)-phenyl]-4-toluenesulfonamide], the concentration for half-maximal inhibition (IC50) came to 50 µM.
Still for that read-out and setting: under `COc1ccc(Oc2ccc(NS(=O)(=O)c3cnc(Cl)c(Br)c3)c(NS(=O)(=O)c3ccc(C)cc3)c2)cc1` [Compound 22t, 5-bromo-6-chloro-N-[4-(4-methoxy-phenoxy)-2-(4-toluenesulfonylamino)-phenyl]-pyridine-3-sulfonamide] stands 44 µM; under `Cc1ccc(S(=O)(=O)Nc2ccc(NC(=O)Cc3ccccc3)cc2NS(=O)(=O)c2ccc(C)cc2)cc1` [Compound 22h, 2-phenyl-N-[3,4-bis-(4-toluenesulfonylamino)-phenyl]-acetamide], 47 µM; under `CCCCc1ccc(S(=O)(=O)Nc2ccc(Oc3ccc(OC)cc3)cc2NS(=O)(=O)c2ccc(C)cc2)cc1` [Compound 22x, 4-butyl-N-[4-(4-methoxy-phenoxy)-2-(4-toluenesulfonylamino)-phenyl]-benzenesulfonamide], 36 µM.
The same measure, in the same setting: under `COc1ccc(Oc2ccc(NS(=O)(=O)CCc3cccc4ccccc34)c(NS(=O)(=O)c3ccc(C)cc3)c2)cc1` [Compound 22y, N-[5-(4-methoxy-phenoxy)-2-(2-naphthalen-1-yl-ethanesulfonylamino)-phenyl]-4-toluenesulfonamide] stands 20 µM; under `COc1ccc(Oc2ccc(NS(=O)(=O)c3cccc4cnccc34)c(NS(=O)(=O)c3ccc(C)cc3)c2)cc1` [Compound 22cc, N-[4-(4-methoxy-phenoxy)-2-(4-toluenesulfonylamino)-phenyl]-isoquinoline-5-sulfonamide], 45 µM; under `Cc1ccc(S(=O)(=O)Nc2ccc(NS(=O)(=O)c3c(C)noc3C)cc2NS(=O)(=O)c2ccc(C)cc2)cc1` [Compound 22j, 3,5-dimethyl-N-[3,4-bis-(4-toluenesulfonylamino)-phenyl]-isoxazole-4-sulfonamide], 25 µM.
Turning to `CC(=O)OCCCCCOc1ccc(NS(=O)(=O)c2ccc(C)cc2)c(NS(=O)(=O)c2ccc(C)cc2)c1` [Compound 12ee, 5-[3,4-bis-(4-toluenesulfonylamino)-phenoxy]-pentyl acetate], the IC50 came out at 131 µM.
Turning to `Cc1ccc(S(=O)(=O)Nc2ccc(C(=O)NC(C)(C)C)cc2NS(=O)(=O)c2ccc(C)cc2)cc1` [Compound 22c, N-t-butyl-3,4-bis-(4-toluenesulfonylamino)-benzamide], the 50% inhibitory concentration (IC50) is 300 µM.

The same test, now with this note: Table 3; compound at 15 μg/mL.
In the case of `Cc1ccc(S(=O)(=O)Nc2ccc(CO)cc2NS(=O)(=O)c2ccc(C)cc2)cc1` [Compound 22l], the “% Inhibition at 15 μg/mL Src (%)” value is 5%.

The same test, now with this note: Table 3; compound at 15 μg/mL; read-out: % Inhibition at 15 μg/mL Src (%).
In the case of `COc1ccc(Oc2ccc(NS(=O)(=O)c3cn(C)cn3)c(NS(=O)(=O)c3ccc(C)cc3)c2)cc1` [Compound 22s, N-[4-(4-methoxy-phenoxy)-2-(4-toluenesulfonylamino)-phenyl]-1-methyl-1H-imidazole-4-sulfonamide], the inhibition at 15 µg/mL is 3%.
The same measure, in the same setting: under `C=CCOc1ccc(NS(=O)(=O)c2ccc(C)cc2)c(NS(=O)(=O)c2ccc(C)cc2)c1` [Compound 12cc, N-[4-allyloxy-2-(4-toluenesulfonylamino)-phenyl]-4-toluenesulfonamide] stands 19%.
With `COc1ccc(Oc2ccc(NS(=O)(=O)c3ccc(C)cc3)c(NS(=O)(=O)c3ccc(C)cc3OC)c2)cc1` [Compound 22hh, 2-methoxy-N-[5-(4-methoxy-phenoxy)-2-(4-toluenesulfonylamino)-phenyl]-4-methyl-benzenesulfonamide], the inhibition at 15 µg/mL came to 17%.
Still for that read-out and setting: under `COc1ccc(CCNC(=O)c2ccc(NS(=O)(=O)c3ccc(C)cc3)c(NS(=O)(=O)c3ccc(C)cc3)c2)cc1` [Compound 22b, N-[2-(4-methoxy-phenyl)-ethyl]-3,4-bis-(4-toluenesulfonylamino)-benzamide] stands 25%.
Consider `Cc1ccc(S(=O)(=O)Nc2ccc(OCCCCCCCCO)cc2NS(=O)(=O)c2ccc(C)cc2)cc1` [Compound 12dd, N-[4-(8-hydroxy-octyloxy)-2-(4-toluenesulfonylamino)-phenyl]-4-toluenesulfonamide], for which the inhibition at 15 µg/mL amounted to 36%.

The test is the same for the next values; noted with them: Table 4, Formula III compounds; NI = no inhibition at 100 μg/mL.
On to `Cc1ccc(S(=O)(=O)Nc2cc(F)c(SCc3ccccc3Cl)cc2NS(=O)(=O)c2ccc(C)cc2)cc1` [Compound 38c, N-[4-(2-chloro-benzylsulfanyl)-5-fluoro-2-(4-toluenesulfonylamino)-phenyl]-4-toluenesulfonamide], for which the IC50 turned out to be 2.2 µM.
With `Cc1ccc(S(=O)(=O)Nc2cc(F)c(S(=O)(=O)Cc3ccccc3Cl)cc2NS(=O)(=O)c2ccc(C)cc2)cc1` [Compound 38d, N-[4-(2-chloro-phenylmethanesulfonyl)-5-fluoro-2-(4-toluenesulfonylamino)-phenyl]-4-toluenesulfonamide], the IC50 was found to be 13 µM.

The same test, now with this note: Table 4; compound at 15 μg/mL; read-out: % Inhibition at 15 μg/mL Src (%).
As to `COc1ccc(Oc2cc(NS(=O)(=O)c3ccc(C)cc3)c(NS(=O)(=O)c3ccc(C)cc3)cc2C(F)(F)F)cc1` [Compound 38b, N-[4-(4-methoxy-phenoxy)-2-(4-toluenesulfonylamino)-5-trifluoromethyl-phenyl]-4-toluenesulfonamide], the inhibition at 15 µg/mL was 50%.

The same test, now with this note: Table 6, Formula V compounds; compound at 15 μg/mL; read-out: % Inhibition at 15 μg/mL Src (%).
Take `COc1ccc(Oc2ccc3c(c2)NS(=O)(=O)N3S(=O)(=O)c2ccc(C)cc2)cc1` [Compound 72f, 5-(4-methoxy-phenoxy)-1-(4-toluenesulfonyl)-1,3-dihydro-benzo[1,2,5]thiadiazole 2,2-dioxide]: the inhibition at 15 µg/mL was 14%.
For `COc1ccc(Oc2ccc3c(c2)n(S(=O)(=O)c2ccc(C)cc2)c(=O)n3S(=O)(=O)c2ccc(C)cc2)cc1` [Compound 72c, 5-(4-methoxy-phenoxy)-1,3-bis-(4-toluenesulfonyl)-1,3-dihydro-benzoimidazol-2-one], the inhibition at 15 µg/mL turned out to be 22%.

Staying with this test, now noted: compound at 15 μg/mL; read-out: % Inhibition at 15 μg/mL Src %.
With `COc1ccc(Oc2ccc(N)c(CNS(=O)(=O)c3ccc(C)cc3)c2)cc1` [Compound 71i, N-[2-amino-5-(4-methoxy-phenoxy)-benzyl]-4-toluenesulfonamide], the inhibition at 15 µg/mL came out at 13%.
Same read-out and setting: under `COc1ccc(Oc2ccc(NS(=O)(=O)c3ccc(C)cc3)c(N=Cc3ccc4ccccc4n3)c2)cc1` [Compound 71u, N-{4-(4-methoxy-phenoxy)-2-[(quinolin-2-ylmethylene)-amino]-phenyl}-4-toluenesulfonamide] stands 6%.
Regarding `COc1ccc(Oc2ccc(NS(=O)(=O)c3ccc(C)cc3)c(NC(=O)NS(=O)(=O)c3ccc(C)cc3)c2)cc1` [Compound 71ii, N-{4-(4-methoxy-phenoxy)-2-[3-(4-toluenesulfonyl)-ureido]-phenyl}-4-toluenesulfonamide], the inhibition at 15 µg/mL came to 21%.
Take `COc1ccc(Oc2cc(NS(=O)(=O)c3ccc(C)cc3)c(N)cc2C(F)(F)F)cc1` [Compound 71gg, N-[2-amino-5-(4-methoxy-phenoxy)-4-trifluoromethyl-phenyl]-4-toluenesulfonamide]: the inhibition at 15 µg/mL came to 19%.
As to `COc1ccc(Oc2ccc(NC(=O)c3ccc(C(F)(F)F)nc3)c(NS(=O)(=O)c3ccc(C)cc3)c2)cc1` [Compound 71c, N-[4-(4-methoxy-phenoxy)-2-(4-toluenesulfonylamino)-phenyl]-6-trifluoromethyl-nicotinamide], the inhibition at 15 µg/mL was found to be 5%.
As for `Cc1ccc(C(=O)Nc2cc(N3CCOCC3)c([N+](=O)[O-])cc2NC(=O)c2ccc(C)cc2)cc1` [Compound 71y, N-(4-morpholin-4-yl-5-nitro-2-(4-toluoylamino)-phenyl)-4-toluamide], the inhibition at 15 µg/mL came out at 14%.

The same test, now with this note: poly E4Y / 32P-ATP; Formula IV compounds.
As to `COc1ccc(Oc2ccc(NS(=O)(=O)c3ccc(C)cc3)c(N(C)S(=O)(=O)c3ccc(C)cc3)c2)cc1` [Compound 71dd, N-[4-(4-methoxy-phenoxy)-2-(4-toluenesulfonyl-methyl-amino)-phenyl]-4-toluenesulfonamide], the IC50 was found to be 172 µM.
Consider `COc1ccc(Oc2ccc(NS(=O)(=O)c3ccc(C)cc3)c(CNC(=O)c3ccc(C)cc3)c2)cc1` [Compound 71p, N-[5-(4-methoxy-phenoxy)-2-(4-toluenesulfonylamino)-benzyl]-4-toluamide], for which the 50% inhibitory concentration (IC50) turned out to be 108 µM.
On the same count and under the same terms, under `COc1ccc(Oc2ccc(NCc3ccc(NC(C)=O)cc3)c(NS(=O)(=O)c3ccc(C)cc3)c2)cc1` [Compound 71e, N-(4-{[4-(4-methoxy-phenoxy)-2-(4-toluenesulfonylamino)-phenylamino]-methyl}-phenyl)-acetamide] stands 203 µM; under `COc1ccc(Oc2ccc(NS(=O)(=O)c3ccc(C)cc3)c(NC(=O)c3ccc(C)cc3)c2)cc1` [Compound 71q, N-[5-(4-methoxy-phenoxy)-2-(4-toluenesulfonylamino)-phenyl]-4-toluamide], 99 µM.

Values taken from patent US20060004197A1, “Sulfonamide-based compounds as protein tyrosine kinase inhibitors” (priority 2004, published 2006).
